Measured values from patent US20120101083A1, “S1P1 AGONISTS COMPRISING A BICYCLIC N-CONTAINING RING” (GLAXO GROUP LIMITED, priority 2009, published 2012).
pEC50: −log10 of the molar value. Structures can show the parent of a compound that is named as a salt.

Molecular target: T1, S1P1 receptor (S1P1 expressing RH7777 membranes) (Homo sapiens, UniProt P21453)
T1 construct: expressed in transfected cells; host or cells: RH7777 cells (membranes)
Assay: S1P1 GTPγS assay
Assay type: biochemical
Conditions: tested in one of the above S1P1 assays (two GTPγS formats)
Description: The potencies and efficacies of the compounds of this invention for the S1P1 receptor can be determined by GTPγS assay performed on the human cloned receptor as described herein.
Membrane preparation for S1P1 GTPγS assay
All steps were performed at 4° C. Cells were homogenised within a glass Waring blender for 2 bursts of 15 secs in 200 mls of buffer (50 mM HEPES, 1 mM leupeptin, 25 μg/ml bacitracin, 1 mM EDTA, 1 mM PMSF, 2 μM pepstatin A). The blender was plunged into ice for 5 mins after the first burst and 10-40 mins after the final burst to allow foam to dissipate. The material was then spun at 500 g for 20 mins and the supernatant spun for 36 mins at 48,000 g. The pellet was resuspended in the same buffer as above but without PMSF and pepstatin A. The material was then forced through a 0.6 mm needle, made up to the required volume, (usually x4 the volume of the original cell pellet), aliquoted and stored frozen at −80° C.
S1P1 expressing RH7777 membranes (1.5 μg/well) membranes (1.5 μg/well) were homogenised by passing through a 23 G needle. These were then adhered to WGA-coated SPA beads (0.125 mg/well) in assay buffer (HEPES 20 mM, MgCl2 10 mM, NaCl 100 mM and pH adjusted to 7.4 using KOH 5M). GDP 10 μM FAC and saponin 90 μg/ml FAC were also added
After 30 minutes precoupling on ice, the bead and membrane suspension was dispensed into white Greiner polypropylene LV 384-well plates (5 μl/well), containing […] of compound. 5 μl/well [^35S]-GTPγS (0.5 nM for S1P1 or 0.3 nM for S1P3 final radioligand concentration) made in assay buffer was then added to the plates. The final assay cocktail (10.1 μl) was then sealed, spun on a centrifuge, then read immediately on a Viewlux instrument.
Alternatively, after 30 minutes precoupling on ice, the bead and membrane suspension was mixed with ^35S]-GTPγS (0.5 nM final radioligand concentration) in assay buffer (HEPES 20 mM, MgCl2 10 mM, NaCl 100 mM and pH adjusted to 7.4 using KOH 5M) in a 1:1 ratio. The bead, membrane and radioligand suspension was dispensed into white Greiner polypropylene low volume 384-well plates (10 μl/well), containing 0.1 μl of a solution of test compound in 100% DMSO. The final assay cocktail (10.1 μl) was then sealed, spun on a centrifuge, then read immediately on a Viewlux instrument.

T1 sequence (P21453 whole entry): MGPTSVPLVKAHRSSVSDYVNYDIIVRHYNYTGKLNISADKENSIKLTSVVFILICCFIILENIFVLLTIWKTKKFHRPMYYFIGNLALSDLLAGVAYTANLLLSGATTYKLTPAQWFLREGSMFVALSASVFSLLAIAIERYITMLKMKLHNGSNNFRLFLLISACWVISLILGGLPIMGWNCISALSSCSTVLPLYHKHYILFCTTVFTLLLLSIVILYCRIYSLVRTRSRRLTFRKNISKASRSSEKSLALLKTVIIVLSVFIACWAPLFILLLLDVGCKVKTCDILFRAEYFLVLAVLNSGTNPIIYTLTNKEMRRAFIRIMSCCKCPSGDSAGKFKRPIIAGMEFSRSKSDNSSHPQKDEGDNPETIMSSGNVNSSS

SMILES | pEC50
N#Cc1cc(-c2nc(-c3ccc4c(c3)CCN(CC(O)CO)CC4)no2)ccc1N1CCC(F)C1 (stereo not shown) [Example 55, 5-{3-[3-(2,3-dihydroxypropyl)-2,3,4,5-tetrahydro-1H-3-benzazepin-7-yl]-1,2,4-oxadiazol-5-yl}-2-(3-fluoro-1-pyrrolidinyl)benzonitrile] | ≥ 6.00
N#Cc1cc(-c2nc(-c3ccc4c(c3)CCN(C(=O)CN)CC4)no2)ccc1N1CCC(F)C1 (stereo not shown) [Example 57, 2-(3-fluoro-1-pyrrolidinyl)-5-[3-(3-glycyl-2,3,4,5-tetrahydro-1H-3-benzazepin-7-yl)-1,2,4-oxadiazol-5-yl]benzonitrile] | ≥ 6.00
Cc1c(-c2noc(-c3ccc(OC(C)C)c(C#N)c3)n2)ccc2c1CCN(C(CO)CO)C2 [Example 65, 5-(3-{2-[2-hydroxy-1-(hydroxymethyl)ethyl]-5-methyl-1,2,3,4-tetrahydro-6-isoquinolinyl}-1,2,4-oxadiazol-5-yl)-2-[(1-methylethyl)oxy]benzonitrile] | ≥ 6.00
CNCCCC(=O)N1CCc2ccc(-c3noc(-c4ccc(OC(C)C)c(C#N)c4)n3)cc2CC1 [Example 83, 5-(3-{3-[4-(methylamino)butanoyl]-2,3,4,5-tetrahydro-1H-3-benzazepin-7-yl}-1,2,4-oxadiazol-5-yl)-2-[(1-methylethyl)oxy]benzonitrile] | ≥ 6.00
CC(C)Oc1ccc(-c2nc(-c3ccc4c(c3)CCN(C(=O)[C@](C)(N)CO)CC4)no2)cc1C#N [Example 84, 2-[(1-methylethyl)oxy]-5-{3-[3-(2-methyl-D-seryl)-2,3,4,5-tetrahydro-1H-3-benzazepin-7-yl]-1,2,4-oxadiazol-5-yl}benzonitrile] | ≥ 6.00
Cc1c(-c2noc(-c3ccc(OC(C)C)c(C#N)c3)n2)ccc2c1CCN(C(=O)[C@](C)(N)CO)C2 [Example 85, 2-[(1-methylethyl)oxy]-5-{3-[5-methyl-2-(2-methyl-D-seryl)-1,2,3,4-tetrahydro-6-isoquinolinyl]-1,2,4-oxadiazol-5-yl}benzonitrile] | ≥ 7.00
CC(C)Oc1ccc(-c2nc(-c3ccc4c(c3)CCN(C(=O)CNCCO)CC4)no2)cc1C#N [Example 86, 5-(3-{3-[N-(2-hydroxyethyl)glycyl]-2,3,4,5-tetrahydro-1H-3-benzazepin-7-yl}-1,2,4-oxadiazol-5-yl)-2-[(1-methylethyl)oxy]benzonitrile hydrochloride] | ≥ 7.00
CC(C)Oc1ccc(-c2nc(-c3ccc4c(c3)CCN(C(=O)CN3CCOCC3)CC4)no2)cc1C#N [Example 91, 2-[(1-methylethyl)oxy]-5-{3-[3-(4-morpholinylacetyl)-2,3,4,5-tetrahydro-1H-3-benzazepin-7-yl]-1,2,4-oxadiazol-5-yl}benzonitrile hydrochloride] | ≥ 6.00
N#Cc1cc(-c2nc(-c3ccc4c(c3)CCN(C(=O)CN)CC4)no2)ccc1N1CC(F)C1 [Example 94, 2-(3-fluoro-1-azetidinyl)-5-[3-(3-glycyl-2,3,4,5-tetrahydro-1H-3-benzazepin-7-yl)-1,2,4-oxadiazol-5-yl]benzonitrile] | ≥ 6.00

Now from value to compound:

pEC50 | SMILES
≥ 7.00 | CCCOc1ccc(-c2nc(-c3ccc4c(c3)CCN(CC(O)CO)CC4)no2)cc1C#N (stereo not shown) [Example 51, 5-{3-[3-(2,3-dihydroxypropyl)-2,3,4,5-tetrahydro-1H-3-benzazepin-7-yl]-1,2,4-oxadiazol-5-yl}-2-(propyloxy)benzonitrile]
≥ 7.00 | CC(C)Nc1ccc(-c2nc(-c3ccc4c(c3)CCN(C(=O)CN)CC4)no2)cc1C#N [Example 52, 5-[3-(3-glycyl-2,3,4,5-tetrahydro-1H-3-benzazepin-7-yl)-1,2,4-oxadiazol-5-yl]-2-[(1-methylethyl)amino]benzonitrile]
≥ 7.00 | CCCNc1ccc(-c2nc(-c3ccc4c(c3)CCN(C(=O)CN)CC4)no2)cc1C#N [Example 53, 5-[3-(3-glycyl-2,3,4,5-tetrahydro-1H-3-benzazepin-7-yl)-1,2,4-oxadiazol-5-yl]-2-(propylamino)benzonitrile]
≥ 7.00 | CC(C)Oc1ccc(-c2nc(-c3ccc4c(c3)CCN(C(=O)[C@H](N)[C@@H](C)O)CC4)no2)cc1C#N [Example 58, 5-[3-(3-D-allothreonyl-2,3,4,5-tetrahydro-1H-3-benzazepin-7-yl)-1,2,4-oxadiazol-5-yl]-2-[(1-methylethyl)oxy]benzonitrile]
≥ 7.00 | CC(C)Oc1ccc(-c2nc(-c3ccc4c(c3)CCN(C(=O)[C@@H](N)[C@@H](C)O)CC4)no2)cc1C#N [Example 59, 2-[(1-methylethyl)oxy]-5-[3-(3-L-threonyl-2,3,4,5-tetrahydro-1H-3-benzazepin-7-yl)-1,2,4-oxadiazol-5-yl]benzonitrile]
≥ 7.00 | N#Cc1cc(-c2nc(-c3ccc4c(c3)CCN(CC(O)CO)CC4)no2)ccc1OC(CF)CF (stereo not shown) [Example 60, 5-{3-[3-(2,3-dihydroxypropyl)-2,3,4,5-tetrahydro-1H-3-benzazepin-7-yl]-1,2,4-oxadiazol-5-yl}-2-{[2-fluoro-1-(fluoromethyl)ethyl]oxy}benzonitrile]
≥ 7.00 | CCOc1ccc(-c2nc(-c3ccc4c(c3)CCN(C(=O)CN)CC4)no2)cc1C#N [Example 61, 2-(ethyloxy)-5-[3-(3-glycyl-2,3,4,5-tetrahydro-1H-3-benzazepin-7-yl)-1,2,4-oxadiazol-5-yl]benzonitrile]
≥ 7.00 | CCCOc1ccc(-c2nc(-c3ccc4c(c3)CCN(C(=O)CN)CC4)no2)cc1C#N [Example 62, 5-[3-(3-glycyl-2,3,4,5-tetrahydro-1H-3-benzazepin-7-yl)-1,2,4-oxadiazol-5-yl]-2-(propyloxy)benzonitrile]
≥ 7.00 | CC(C)Oc1ccc(-c2nc(-c3ccc4c(c3)CCN(C(=O)CCCN)CC4)no2)cc1C#N [Example 63, 5-{3-[3-(4-aminobutanoyl)-2,3,4,5-tetrahydro-1H-3-benzazepin-7-yl]-1,2,4-oxadiazol-5-yl}-2-[(1-methylethyl)oxy]benzonitrile]
≥ 7.00 | Cc1c(-c2noc(-c3ccc(OC(C)C)c(C#N)c3)n2)ccc2c1CCN(C(CO)CO)C2 [Example 66, 5-(3-{2-[2-hydroxy-1-(hydroxymethyl)ethyl]-5-methyl-1,2,3,4-tetrahydro-6-isoquinolinyl}-1,2,4-oxadiazol-5-yl)-2-[(1-methylethyl)oxy]benzonitrile hydrochloride]
≥ 8.00 | CC(C)Oc1ncc(-c2nc(-c3ccc4c(c3)CCN(C(CO)CO)CC4)no2)cc1C#N [Example 95, 5-(3-{3-[2-hydroxy-1-(hydroxymethyl)ethyl]-2,3,4,5-tetrahydro-1H-3-benzazepin-7-yl}-1,2,4-oxadiazol-5-yl)-2-[(1-methylethyl)oxy]-3-pyridinecarbonitrile]
≥ 8.00 | CC(C)Oc1ncc(-c2nc(-c3ccc4c(c3)CCN(C[C@H](O)CO)CC4)no2)cc1C#N [Example 96, 5-(3-{3-[(2S)-2,3-dihydroxypropyl]-2,3,4,5-tetrahydro-1H-3-benzazepin-7-yl}-1,2,4-oxadiazol-5-yl)-2-[(1-methylethyl)oxy]-3-pyridinecarbonitrile]
≥ 8.00 | CC(C)Oc1ccc(-c2nc(-c3ccc4c(c3)CCN(C(=O)CN[C@H](C)CO)CC4)no2)cc1C#N [Example 98, 5-[3-(3-{N-(1R)-2-hydroxy-1-methylethyl]glycyl}-2,3,4,5-tetrahydro-1H-3-benzazepin-7-yl)-1,2,4-oxadiazol-5-yl]-2-[(1-methylethyl)oxy]benzonitrile hydrochloride]
